In patent publication US20240108598A1, “Danegaptide for Use in the Treatment or Prevention of a Kidney Disease” (CIANA THERAPEUTICS APS, priority 2021, published 2024):

Key:
Cx43 hemichannels = target: T1, Cx43 hemichannels (Homo sapiens, UniProt P17302); assay: ATP biosensing (hemichannel mediated ATP release); assay type: cell-based; conditions: for ATP release: hPTECs
T1 construct: host or cells: HK2 human kidney proximal tubule epithelial cell line
Description: HK2 cells were cultured in low (5 mM) glucose with/without TGFβ1 (10 ng/ml)±danegaptide (50 or 100 nM) for 48 h. Representative biosensor traces show ATP release following removal of extracellular calcium. […] Peak responses were quantified by comparing against a known concentration of ATP (10 μM) and mean data±SEM plotted (E). Results are representative of 3 separate experiments (n=3; **P<0.01, […] ***P<0.001; one-way ANOVA and Tukey's post-test).
ATP biosensors (Sarissa Biomedical, Coventry UK) were used in a simultaneous dual-recording ampomeric setup as described previously (Price, G. W.; Chadjichristos, C. E.; Kavvadas, P.; Tang, S. C. W.; Yiu, W. H.; Green, C. R.; Potter, J. A.; Siamantouras, E.; Squires, P. E.; Hills, C. E. Blocking Connexin-43 mediated hemichannel activity protects against early tubular injury in experimental chronic kidney disease. Cell Commun. Signal. 2020, 18). A null biosensor was used to account for non-specific electro-active artefacts and subtracted from the ATP trace. Glycerol (2 mM) was included in all recording solutions to enable ATP detection. HK2 cells were seeded on glass coverslips (10 mm diameter) in low glucose DMEM/F12 (5 mmol/L) for 48 h, prior to an overnight serum-starvation. The cells were then incubated with TGFβ1 (10 ng/ml)±danegaptide (100 nM) for 48 h. The coverslips were transferred to a chamber containing Ca^2+-containing BSS perfused at 6 ml/min (37° C.) and left for 10 min to acclimatise. ATP and null biosensors were bent and lowered so that the electrode laid parallel to the cellular monolayer. Once a stable baseline occurred, perfusion of Ca^2+-free BSS stimulated hemichannel opening. After ATP release, Ca^2+-containing BSS was used to close hemichannels, followed by a calibration solution of ATP ([…]). Recordings were acquired at 4 Hz with a Micro CED (Mark2) interface using Spike (v8.03) software.

primary hPTECs = assay: Inflammation antibody array, cell lysates (Table 1); assay type: cell-based, human; conditions: hPTEC lysate, 48 h
Source text: An inflammation antibody array was used to assess regulation of 31 candidate inflammatory proteins in cell lysates from hPTEC cells treated with TGFβ1±danegaptide. Results are representative of 3 separate experiments and presented as mean±SEM, n=3 with key significances indicated (*P<0.05, **P<0.01, ***P<0.001; one-way ANOVA and Tukey's post-test).
A proteome profiler array (Human Cytokine Array Kit from R&D Systems, Oxfordshire, UK) was used, to determine if danegaptide negates TGFβ1-induced changes in expression and secretion of key pro-inflammatory mediators. Primary hPTECs were cultured as described above and treated with TGFβ1 (10 ng/mL)±danegaptide (100 nM) for 48 h.

HK2 cells = assay: Crystal violet assay; assay type: cell-based, human; conditions: 48 h
Description: HK2 cells were cultured in low glucose (5 mM) for 48 h, prior to being serum-starved overnight and subsequently treated with TGFβ1 (10 ng/mL)±danegaptide (50 nM-1 μM) for 48 h (FIG. 1A, n=3).
This simple assay was used to measure the relative density of adhered cells to multi-well dishes. Crystal Violet stains DNA and can be quantified colourmetrically after solubilisation. HK2 cells were seeded in 12-well plates and cultured in low glucose DMEM/F12 (5 mM) for 48 h, prior to overnight serum-starvation, then subsequently stimulated for 48 h with TGFβ1 (10 ng/ml)±danegaptide (50-1000 nM). The assay has been described previously (Hills, C. E.; Jin, T.; Siamantouras, E.; Liulssac, I. K. K.; Jefferson, K. P.; Squires, P. E. “Special K” and a Loss of Cell-To-Cell Adhesion in Proximal Tubule-Derived Epithelial Cells: Modulation of the Adherens Junction Complex by Ketamine. PLoS One 2013, 8, e71819). Briefly, cells were fixed using paraformaldehyde for 10 mins, washed with PBS and incubated for 10 mins at RT in a 1% crystal violet solution. After several more washes, the stain was solubilised using 1% SDS, and absorbance measured by a plate reader.

T1 sequence (P17302 whole entry): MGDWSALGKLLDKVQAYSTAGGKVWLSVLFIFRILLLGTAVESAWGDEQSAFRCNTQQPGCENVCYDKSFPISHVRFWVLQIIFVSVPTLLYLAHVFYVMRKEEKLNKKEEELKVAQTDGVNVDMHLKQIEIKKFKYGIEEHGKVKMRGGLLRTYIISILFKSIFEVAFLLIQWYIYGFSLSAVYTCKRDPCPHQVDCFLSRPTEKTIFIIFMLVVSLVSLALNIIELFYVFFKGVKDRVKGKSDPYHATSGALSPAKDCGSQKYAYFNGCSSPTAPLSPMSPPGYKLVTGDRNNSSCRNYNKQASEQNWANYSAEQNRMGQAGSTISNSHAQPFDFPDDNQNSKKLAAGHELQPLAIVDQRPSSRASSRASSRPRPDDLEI

## TGFβ1: Recombinant hTGFβ1 (Sigma); pro-fibrotic cytokine used to stimulate the cells [reference compound]
Cx43 hemichannels; TGFβ1 10 ng/mL alone, 48 h, removal of extracellular calcium
  ATP release: 3.60 ± 0.29 µM
Primary hPTECs; TGF-β1 10 ng/mL alone
  Angiogenin in lysate (% compared to control): 237 ± 36^ %
  Cystatin C in lysate (% compared to control): 182 ± 17.5%
  DPPIV in lysate (% compared to control): 315 ± 6.8%
  ENA 78 in lysate (% compared to control): 207 ± 21.6%
  Endoglin in lysate (% compared to control): 145 ± 24.9%
  FGF7 in lysate (% compared to control): 139 ± 5.6%
  Flt 3 Ligand in lysate (% compared to control): 212 ± 13.3%
  G-CSF in lysate (% compared to control): 201 ± 24.6%
  GM-CSF in lysate (% compared to control): 221 ± 11.1%
  HGF in lysate (% compared to control): 153 ± 17.0%
  ICAM 1 in lysate (% compared to control): 190 ± 13.6%
  IFNg in lysate (% compared to control): 206 ± 15.4%
  IGFBP2 in lysate (% compared to control): 519 ± 99.4%
  IGFBP3 in lysate (% compared to control): 394 ± 94.5%
  IL1A in lysate (% compared to control): 127 ± 26.4%
  IL3 in lysate (% compared to control): 176 ± 3.4%
  IL8 in lysate (% compared to control): 236 ± 9.4%
  IL12 p70 in lysate (% compared to control): 177 ± 31.0%
  IL13 in lysate (% compared to control): 269 ± 3.9%
  Kallikrein 3 in lysate (% compared to control): 76 ± 12.0%
  LIF in lysate (% compared to control): 328 ± 70.4%
  MCP-1 in lysate (% compared to control): 134 ± 30.2%
  MMP9 in lysate (% compared to control): 24 ± 3.1%
  PDGF-AA/BB in lysate (% compared to control): 247 ± 53.4%
  RAGE in lysate (% compared to control): 109 ± 23.8%
  RANTES in lysate (% compared to control): 235 ± 13.5%
  Serpin E1 in lysate (% compared to control): 186 ± 40.2%
  TFF3 in lysate (% compared to control): 204 ± 25.8%
  TNF-α in lysate (% compared to control): 192 ± 14.7%
  Thrombospondin-1 in lysate (% compared to control): 128 ± 37.5%
  VEGF in lysate (% compared to control): 203 ± 25.9%

## NCC(=O)N1C[C@H](NC(=O)c2ccccc2)C[C@H]1C(=O)O [danegaptide, (2S,4R)-1-(2-aminoacetyl)-4-benzamidopyrrolidine2-carboxylic acid]
Cx43 hemichannels; HK2 cells
  optimal concentration in the microenvironment (dose finding, dye uptake and ATP biosensing): 50 to 100 nM
Cx43 hemichannels; TGFβ1 10 ng/mL + danegaptide 50 nM, 48 h
  ATP release: 1.90 ± 0.26 µM
Cx43 hemichannels; TGFβ1 10 ng/mL + danegaptide 100 nM, 48 h
  ATP release: 0.79 ± 0.19 µM
Cx43 hemichannels; danegaptide alone 50 nM
  ATP release: 0.35 ± 0.10 µM
Cx43 hemichannels; danegaptide alone 100 nM
  ATP release: 0.31 ± 0.09 µM
Primary hPTECs; TGF-β1 10 ng/mL + DG 100 nM
  Angiogenin in lysate (% compared to control): 100 ± 20.3%
  Cystatin C in lysate (% compared to control): 123 ± 14.3%
  DPPIV in lysate (% compared to control): 187 ± 25.2%
  ENA 78 in lysate (% compared to control): 97 ± 18.2%
  Endoglin in lysate (% compared to control): 72.3 ± 8.9^ %
  FGF7 in lysate (% compared to control): 106 ± 15.2%
  Flt 3 Ligand in lysate (% compared to control): 208 ± 31.4%
  G-CSF in lysate (% compared to control): 126 ± 4.7%
  GM-CSF in lysate (% compared to control): 136 ± 11.6%
  HGF in lysate (% compared to control): 104.0 ± 9.0%
  ICAM 1 in lysate (% compared to control): 80 ± 28.7%
  IFNg in lysate (% compared to control): 112 ± 12.7%
  IGFBP2 in lysate (% compared to control): 334 ± 66.1%
  IGFBP3 in lysate (% compared to control): 97 ± 28.5%
  IL1A in lysate (% compared to control): 80 ± 18.8%
  IL3 in lysate (% compared to control): 129 ± 15.7%
  IL8 in lysate (% compared to control): 122 ± 5.2%
  IL12 p70 in lysate (% compared to control): 97 ± 4.6%
  IL13 in lysate (% compared to control): 150 ± 46.0%
  Kallikrein 3 in lysate (% compared to control): 67 ± 14.3%
  LIF in lysate (% compared to control): 225 ± 82^ %
  MCP-1 in lysate (% compared to control): 97.6 ± 13.9%
  MMP9 in lysate (% compared to control): 95 ± 10.6%
  PDGF-AA/BB in lysate (% compared to control): 95.2 ± 14.6%
  RAGE in lysate (% compared to control): 105 ± 9.2%
  RANTES in lysate (% compared to control): 104 ± 15.2%
  Serpin E1 in lysate (% compared to control): 148 ± 28.5%
  TFF3 in lysate (% compared to control): 132 ± 3.9%
  TNF-α in lysate (% compared to control): 144 ± 18.5%
  Thrombospondin-1 in lysate (% compared to control): 100 ± 19.8%
  VEGF in lysate (% compared to control): 101 ± 16.4%
HK2 cells; TGFβ1 10 ng/mL + danegaptide 50 nM
  crystal violet staining, of control: 98.2±1.9%
HK2 cells; TGFβ1 10 ng/mL + danegaptide 100 nM
  crystal violet staining, of control: 97.5±1.8%
HK2 cells; TGFβ1 10 ng/mL + danegaptide 1 μM
  crystal violet staining, of control: 85.8±5.3%
HK2 cells; danegaptide alone 50 nM
  crystal violet staining, of control: 98.3±2.5%
HK2 cells; danegaptide alone 100 nM
  crystal violet staining, of control: 99.6±2.7%
HK2 cells; danegaptide alone 1 μM
  crystal violet staining, of control: 98.5±2.2%
